Laboratory results reported in patent US7625875B2 (priority 2002, dated 2009).
Like-named read-outs stand apart in the source and are kept apart here.

What was measured:
[1] = system: WNV; assay: microbe, parasite or virus in culture; format: cell-based, West Nile virus; conditions: West Nile virus, read-out: WNV
[2] = system: DENV 2; assay: microbe, parasite or virus in culture; format: cell-based, dengue virus; conditions: Dengue virus, read-out: DENV 2
[3] = system: HCV; assay: Clinical antiviral activity, serum HCV RNA (Amplicor HCV Monitor), val-mCyd daily for 15 days
[4] = Safety in the chimpanzee model of chronic HCV infection; format: in vivo; conditions: 10 or 20 mg/kg/day dihydrochloride PO, 7 days
Description: Chimpanzees were monitored by trained veterinarians throughout the study for weight loss, temperature, appetite, and general well being, as well as for blood chemistry profile and CBCs. […] The drug appeared to be well tolerated by all four treated animals. […] A single animal experienced an alanine aminotransferase (ALT) flare in the pretreatment period prior to the start of dosing, but the ALT levels diminished during treatment. Thus, this isolated ALT event was not attributable to drug.

[5] = system: HCV genotype 1
[6] = in vitro; conditions: human
[7] = Stability in human plasma
[8] = system: Sb-1; assay: organism not typed; format: cell-based, Sabin type 1 poliomyelitis virus; conditions: read-out: Sb-1

## CC(C)C(N)C(=O)OC1[C@@H](CO)O[C@@H](n2ccc(N)nc2=O)[C@@]1(C)O (some centres unmarked) [val-mCyd, 2-Amino-3-methyl-butyric acid 5-(4-amino-2-oxo-2H-pyrimidine-1-yl)-4-hydroxy-2 hydroxy-methyl-4-methyl-tetrahydro-furan-3-yl ester]
[1]
  EC50: 82 µM
[2]
  EC50: > 100 µM
[3]; 50 mg, Day 1 (baseline)
  HCV RNA in Log10 scale, mean: 6.72 log10
  HCV RNA in Log10 scale, median: 6.69 log10
[3]; 50 mg, Day 2
  Change from baseline (Day 1) in Log10 HCV RNA, mean: −0.13 log10
  Change from baseline (Day 1) in Log10 HCV RNA, median: −0.07 log10
  HCV RNA in Log10 scale, mean: 6.60 log10
  HCV RNA in Log10 scale, median: 6.58 log10
[3]; 50 mg, Day 4
  Change from baseline (Day 1) in Log10 HCV RNA, mean: −0.16 log10
  Change from baseline (Day 1) in Log10 HCV RNA, median: −0.13 log10
  HCV RNA in Log10 scale, mean: 6.56 log10
  HCV RNA in Log10 scale, median: 6.55 log10
[3]; 50 mg, Day 8
  Change from baseline (Day 1) in Log10 HCV RNA, mean: −0.11 log10
  Change from baseline (Day 1) in Log10 HCV RNA, median: −0.06 log10
  HCV RNA in Log10 scale, mean: 6.62 log10
  HCV RNA in Log10 scale, median: 6.56 log10
[3]; 50 mg, Day 11
  Change from baseline (Day 1) in Log10 HCV RNA, mean: −0.26 log10
  Change from baseline (Day 1) in Log10 HCV RNA, median: −0.26 log10
  HCV RNA in Log10 scale, mean: 6.47 log10
  HCV RNA in Log10 scale, median: 6.46 log10
[3]; 50 mg, Day 15
  Change from baseline (Day 1) in Log10 HCV RNA, mean: −0.15 log10
  Change from baseline (Day 1) in Log10 HCV RNA, median: −0.10 log10
  HCV RNA in Log10 scale, mean: 6.57 log10
  HCV RNA in Log10 scale, median: 6.57 log10
[3]; 50 mg, Day 16
  Change from baseline (Day 1) in Log10 HCV RNA, mean: −0.15 log10
  Change from baseline (Day 1) in Log10 HCV RNA, median: −0.13 log10
  HCV RNA in Log10 scale, mean: 6.57 log10
  HCV RNA in Log10 scale, median: 6.45 log10
[3]; 50 mg, Day 17
  Change from baseline (Day 1) in Log10 HCV RNA, mean: −0.18 log10
  Change from baseline (Day 1) in Log10 HCV RNA, median: −0.21 log10
  HCV RNA in Log10 scale, mean: 6.54 log10
  HCV RNA in Log10 scale, median: 6.54 log10
[3]; 50 mg, Day 22
  Change from baseline (Day 1) in Log10 HCV RNA, mean: −0.09 log10
  Change from baseline (Day 1) in Log10 HCV RNA, median: −0.09 log10
  HCV RNA in Log10 scale, mean: 6.64 log10
  HCV RNA in Log10 scale, median: 6.73 log10
[3]; 50 mg, Day 29
  Change from baseline (Day 1) in Log10 HCV RNA, mean: −0.01 log10
  Change from baseline (Day 1) in Log10 HCV RNA, median: −0.04 log10
  HCV RNA in Log10 scale, mean: 6.71 log10
  HCV RNA in Log10 scale, median: 6.67 log10
[3]; 50 mg, Day −1 (pre-treatment)
  HCV RNA in Log10 scale, mean: 6.72 log10
  HCV RNA in Log10 scale, median: 6.81 log10
[3]; 100 mg, Day 1 (baseline)
  HCV RNA in Log10 scale, mean: 6.68 log10
  HCV RNA in Log10 scale, median: 6.93 log10
[3]; 100 mg, Day 2
  Change from baseline (Day 1) in Log10 HCV RNA, mean: −0.16 log10
  Change from baseline (Day 1) in Log10 HCV RNA, median: −0.12 log10
  HCV RNA in Log10 scale, mean: 6.52 log10
  HCV RNA in Log10 scale, median: 6.80 log10
[3]; 100 mg, Day 4
  Change from baseline (Day 1) in Log10 HCV RNA, mean: −0.25 log10
  Change from baseline (Day 1) in Log10 HCV RNA, median: −0.24 log10
  HCV RNA in Log10 scale, mean: 6.43 log10
  HCV RNA in Log10 scale, median: 6.46 log10
[3]; 100 mg, Day 8
  Change from baseline (Day 1) in Log10 HCV RNA, mean: −0.21 log10
  Change from baseline (Day 1) in Log10 HCV RNA, median: −0.20 log10
  HCV RNA in Log10 scale, mean: 6.42 log10
  HCV RNA in Log10 scale, median: 6.59 log10
[3]; 100 mg, Day 11
  Change from baseline (Day 1) in Log10 HCV RNA, mean: −0.32 log10
  Change from baseline (Day 1) in Log10 HCV RNA, median: −0.28 log10
  HCV RNA in Log10 scale, mean: 6.36 log10
  HCV RNA in Log10 scale, median: 6.56 log10
[3]; 100 mg, Day 15
  Change from baseline (Day 1) in Log10 HCV RNA, mean: −0.38 log10
  Change from baseline (Day 1) in Log10 HCV RNA, median: −0.43 log10
  HCV RNA in Log10 scale, mean: 6.30 log10
  HCV RNA in Log10 scale, median: 6.41 log10
[3]; 100 mg, Day 16
  Change from baseline (Day 1) in Log10 HCV RNA, mean: −0.39 log10
  Change from baseline (Day 1) in Log10 HCV RNA, median: −0.49 log10
  HCV RNA in Log10 scale, mean: 6.23 log10
  HCV RNA in Log10 scale, median: 6.40 log10
[3]; 100 mg, Day 17
  Change from baseline (Day 1) in Log10 HCV RNA, mean: −0.18 log10
  Change from baseline (Day 1) in Log10 HCV RNA, median: −0.24 log10
  HCV RNA in Log10 scale, mean: 6.65 log10
  HCV RNA in Log10 scale, median: 6.72 log10
[3]; 100 mg, Day 22
  Change from baseline (Day 1) in Log10 HCV RNA, mean: −0.15 log10
  Change from baseline (Day 1) in Log10 HCV RNA, median: −0.19 log10
  HCV RNA in Log10 scale, mean: 6.53 log10
  HCV RNA in Log10 scale, median: 6.66 log10
[3]; 100 mg, Day 29
  Change from baseline (Day 1) in Log10 HCV RNA, mean: 0.13 log10
  Change from baseline (Day 1) in Log10 HCV RNA, median: −0.12 log10
  HCV RNA in Log10 scale, mean: 6.67 log10
  HCV RNA in Log10 scale, median: 6.71 log10
[3]; 100 mg, Day −1 (pre-treatment)
  HCV RNA in Log10 scale, mean: 6.60 log10
  HCV RNA in Log10 scale, median: 6.75 log10
[4]
  adverse events, tolerability: No adverse events due to drug were noted
[5]; 8.3 mg/kg/day dose group, end of treatment (day 7)
  mean reduction from baseline HCV viral load: 0.83 log10
[5]; 8.3 mpk, animal 500, site 1, Day 2
  Change in baseline Log10 HCV RNA viral load: −1.156 log10
[5]; 8.3 mpk, animal 500, site 1, Day 5
  Change in baseline Log10 HCV RNA viral load: −0.4038 log10
[5]; 8.3 mpk, animal 500, site 1, Day 7
  Change in baseline Log10 HCV RNA viral load: −0.8051 log10
[5]; 8.3 mpk, animal 500, site 2, Day 2
  Change in baseline Log10 HCV RNA viral load: −1.079 log10
[5]; 8.3 mpk, animal 500, site 2, Day 5
  Change in baseline Log10 HCV RNA viral load: −0.5503 log10
[5]; 8.3 mpk, animal 500, site 2, Day 7
  Change in baseline Log10 HCV RNA viral load: −1.063 log10
[5]; 8.3 mpk, animal 501, site 1, Day 2
  Change in baseline Log10 HCV RNA viral load: −0.2518 log10
[5]; 8.3 mpk, animal 501, site 1, Day 5
  Change in baseline Log10 HCV RNA viral load: −0.3618 log10
[5]; 8.3 mpk, animal 501, site 1, Day 7
  Change in baseline Log10 HCV RNA viral load: −0.4361 log10
[5]; 8.3 mpk, animal 501, site 2, Day 2
  Change in baseline Log10 HCV RNA viral load: −0.452 log10
[5]; 8.3 mpk, animal 501, site 2, Day 5
  Change in baseline Log10 HCV RNA viral load: −0.7125 log10
[5]; 8.3 mpk, animal 501, site 2, Day 7
  Change in baseline Log10 HCV RNA viral load: −0.9003 log10
[5]; 16.6 mpk, animal 497, site 1, Day 2
  Change in baseline Log10 HCV RNA viral load: −0.7215 log10
[5]; 16.6 mpk, animal 497, site 1, Day 5
  Change in baseline Log10 HCV RNA viral load: −0.907 log10
[5]; 16.6 mpk, animal 497, site 1, Day 7
  Change in baseline Log10 HCV RNA viral load: −1.277 log10
[5]; 16.6 mpk, animal 497, site 2, Day 2
  Change in baseline Log10 HCV RNA viral load: −0.8556 log10
[5]; 16.6 mpk, animal 497, site 2, Day 5
  Change in baseline Log10 HCV RNA viral load: −1.02 log10
[5]; 16.6 mpk, animal 497, site 2, Day 7
  Change in baseline Log10 HCV RNA viral load: −1.514 log10
[5]; 16.6 mpk, animal 498, site 1, Day 2
  Change in baseline Log10 HCV RNA viral load: −0.2947 log10
[5]; 16.6 mpk, animal 498, site 1, Day 5
  Change in baseline Log10 HCV RNA viral load: −0.2814 log10
[5]; 16.6 mpk, animal 498, site 1, Day 7
  Change in baseline Log10 HCV RNA viral load: −0.603 log10
[5]; 16.6 mpk, animal 498, site 2, Day 2
  Change in baseline Log10 HCV RNA viral load: −0.6585 log10
[5]; 16.6 mpk, animal 498, site 2, Day 5
  Change in baseline Log10 HCV RNA viral load: −0.5597 log10
[5]; 16.6 mpk, animal 498, site 2, Day 7
  Change in baseline Log10 HCV RNA viral load: −0.6914 log10
[5]; animal 497, site 2, day 7, pretreatment 535,000
  HCV viral load: 16,500 genomes per ml
[6]
  CC50: 24 µM
[7]; 37° C., after 10 hours
  input val-mCyd remaining: 2%
[7]; human, plasma
  half-life: 1.81 h
[8]
  EC50: 14 µM
